Molecules are shown by their SMILES.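 Each compound was tested at five concentrations against cells in 96-well plates for 48 hours. Definition used: TGI = concentration required for complete inhibition of growth.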

Among the test systems are UACC-257 melanoma; SK-OV-3 ovarian; RPMI-8226 leukemia; HL-60(TB) leukemia; CAKI-1 renal; HOP-92 NSCLC; SK-MEL-2 melanoma; SN12C renal; HT29 colon; UO-31 renal.
Common to all, as to experiment: growth of human tumour cells (NCI), 48 h

For the compound `Nc1c(S(=O)(=O)O)cc(Nc2cccc(S(=O)(=O)/C=C/S(=O)(=O)O)c2)c2c1C(=O)c1ccccc1C2=O`, the TGI in the experiment on UACC-257 melanoma, with SK-OV-3 ovarian, in the experiment with RPMI-8226 leukemia, in the experiment on HL-60(TB) leukemia, in the experiment on CAKI-1 renal and in the experiment with HOP-92 NSCLC was more than 100 µM each time. For the same compound, the TGI with SK-MEL-2 melanoma, in the experiment on SN12C renal and in the experiment with HT29 colon was more than 100 µM in each case.
In the case of `COC1/C=C/C(C)C(C(C)C(OC)C(C)CCC(=O)C(C)C(C/C=C/N(C)C=O)OC)OC(=O)/C=C/C=C(\C)CC(OC)C(OC)C2=CC(=O)O[C@@H](C(C)C(OC)CC(OC)/C=C/C(C)C(O)C1)[C@H]2O` (stereo not given in full), the TGI was determined as 0.338 µM in the experiment with UACC-257 melanoma; 0.43 µM in the experiment with HL-60(TB) leukemia; 0.115 µM with HOP-92 NSCLC; 0.388 µM with SK-MEL-2 melanoma; 2.15 µM with HT29 colon; 0.267 µM in the experiment with UO-31 renal.
As to `CCS(=O)(=O)c1c2cc(OC)ccc2nc2ccc(OC)cc12`, the TGI with UACC-257 melanoma, in the experiment on SK-OV-3 ovarian, in the experiment with HL-60(TB) leukemia, in the experiment on CAKI-1 renal, in the experiment with HOP-92 NSCLC and in the experiment on SK-MEL-2 melanoma was more than 100 µM each time. Besides, the TGI in the experiment with SN12C renal, in the experiment with HT29 colon and in the experiment with UO-31 renal was more than 100 µM throughout.
On to `CC1CCC2(CC1)N=C1CCC(C)CC1C1(CCC(C)CC1)N2` (stereo not given), for which the TGI with UACC-257 melanoma, in the experiment with SK-OV-3 ovarian, in the experiment with RPMI-8226 leukemia, with HL-60(TB) leukemia, in the experiment on CAKI-1 renal and in the experiment on HOP-92 NSCLC was more than 100 µM in each case. The TGI in the experiment on SK-MEL-2 melanoma, in the experiment on HT29 colon and in the experiment with UO-31 renal was more than 100 µM in each case.
For the compound `COc1cc2c(cc1Cl)n([O-])c(C#N)c(N1CCN(c3ccc([N+](=O)[O-])cc3)CC1)[n+]2=O`, the TGI in the experiment on UACC-257 melanoma, in the experiment on SK-OV-3 ovarian, in the experiment on RPMI-8226 leukemia, in the experiment with HL-60(TB) leukemia, in the experiment with CAKI-1 renal and in the experiment with SK-MEL-2 melanoma was more than 100 µM in each case. The TGI in the experiment on SN12C renal, in the experiment on HT29 colon and in the experiment on UO-31 renal was more than 100 µM throughout.
Take `O=C(CCCn1ccnc1[N+](=O)[O-])NCCn1ccnc1[N+](=O)[O-]`: the TGI in the experiment with UACC-257 melanoma, with SK-OV-3 ovarian, in the experiment with RPMI-8226 leukemia, with HL-60(TB) leukemia, in the experiment on CAKI-1 renal and in the experiment with SK-MEL-2 melanoma was more than 100 µM in each case. Also, the TGI in the experiment on SN12C renal, with HT29 colon and in the experiment on UO-31 renal was more than 100 µM throughout.
In the case of `CC(C)C(C/C=C1\CC(CO)(COC(=O)CC(C(C)C)C(C)C)OC1=O)C(C)C` (stereo not given), the TGI was found to be 29.5 µM in the experiment on UACC-257 melanoma; 32.1 µM with SK-OV-3 ovarian; 18.8 µM in the experiment on HL-60(TB) leukemia; 20.3 µM in the experiment with CAKI-1 renal; 16.6 µM in the experiment with HOP-92 NSCLC; 38.2 µM in the experiment with SK-MEL-2 melanoma. The TGI in the experiment on SN12C renal worked out at 22.1 µM; in the experiment with HT29 colon it was 32.6 µM; in the experiment on UO-31 renal, 20 µM.
Consider `Cc1cc([N+](=O)[O-])ccc1N=NC(=O)NNc1ccc([N+](=O)[O-])cc1C`, for which the TGI was found to be 39.4 µM with UACC-257 melanoma; 55.2 µM in the experiment on RPMI-8226 leukemia; 40.9 µM in the experiment with HL-60(TB) leukemia; 29.3 µM in the experiment on CAKI-1 renal; 43.6 µM in the experiment with SK-MEL-2 melanoma; 63.8 µM in the experiment with SN12C renal. Besides, the figures for the TGI with HT29 colon and in the experiment with UO-31 renal were 45.6 µM and 25.2 µM, respectively.
Turning to `CCOC(=O)N(C)C1(c2ccccc2)CCN(CCCC(=O)c2ccc(F)cc2)CC1`, the TGI was 38.2 µM with UACC-257 melanoma; more than 100 µM with SK-OV-3 ovarian; 63.8 µM in the experiment with RPMI-8226 leukemia; 79.1 µM with HL-60(TB) leukemia; more than 100 µM with CAKI-1 renal; 78.6 µM in the experiment on HOP-92 NSCLC. For the same compound, the TGI was 53.5 µM in the experiment with SK-MEL-2 melanoma, more than 100 µM in the experiment with SN12C renal and 38.1 µM with HT29 colon.
As to `O=C1C[C@H](c2ccccc2)C2(C(=O)c3ccccc3C2=O)[C@H](c2ccccc2)C1`, the TGI in the experiment with SK-OV-3 ovarian, with RPMI-8226 leukemia, with HL-60(TB) leukemia, in the experiment with CAKI-1 renal, in the experiment with HOP-92 NSCLC and in the experiment on SK-MEL-2 melanoma was more than 100 µM each time. Further, the TGI in the experiment with SN12C renal, with HT29 colon and with UO-31 renal was more than 100 µM throughout.
Regarding `COC(=O)n1c(CBr)c(Br)c2ccccc21`, the TGI was more than 100 µM with UACC-257 melanoma; 58.7 µM in the experiment on RPMI-8226 leukemia; 59.8 µM in the experiment with HL-60(TB) leukemia; 49.9 µM in the experiment with CAKI-1 renal; 68 µM in the experiment on HOP-92 NSCLC; 47 µM in the experiment with SK-MEL-2 melanoma. For the same compound, the TGI with HT29 colon was more than 100 µM; in the experiment with UO-31 renal, 71.1 µM.
In the case of `COc1cc(CNc2nc3cc(C(F)(F)F)ccc3nc2C)cc(OC)c1OC`, the TGI in the experiment with UACC-257 melanoma is 37.9 µM; in the experiment on RPMI-8226 leukemia, 65.7 µM; with HL-60(TB) leukemia, 51.9 µM; with CAKI-1 renal it was 96.4 µM; in the experiment with SN12C renal, 30.8 µM; in the experiment with HT29 colon, 33.6 µM. In addition, in the experiment with UO-31 renal, the TGI amounted to 63.9 µM.
As for `COc1ccc2c(c1)CC[C@@H]1[C@@H]2CC[C@]2(C)C(=O)/C(=C/c3cc(OC)c(OC)c(OC)c3)C[C@@H]12`, the TGI is more than 100 µM with SK-OV-3 ovarian; more than 100 µM in the experiment with RPMI-8226 leukemia; more than 100 µM in the experiment with HL-60(TB) leukemia; 63.3 µM in the experiment on CAKI-1 renal; 45.4 µM in the experiment with HOP-92 NSCLC; 41.6 µM in the experiment with SK-MEL-2 melanoma. The TGI with UO-31 renal is more than 100 µM.
In the case of `COC(=O)c1cccc(C(=O)OC)c1`, the TGI in the experiment on UACC-257 melanoma, with SK-OV-3 ovarian, in the experiment with RPMI-8226 leukemia, in the experiment on HL-60(TB) leukemia, with CAKI-1 renal and in the experiment with HOP-92 NSCLC was more than 100 µM throughout. Also, the TGI with SK-MEL-2 melanoma, in the experiment with SN12C renal and in the experiment with HT29 colon was more than 100 µM in each case.
On to `COC(=O)CCN(CCC(=O)OC)C1CC1`, for which the TGI with UACC-257 melanoma, in the experiment on SK-OV-3 ovarian, with RPMI-8226 leukemia, in the experiment on HL-60(TB) leukemia, in the experiment on HOP-92 NSCLC and in the experiment with SN12C renal was more than 100 µM in each case. Also, the TGI in the experiment with HT29 colon and with UO-31 renal was more than 100 µM throughout.
